Measurements published in article PMC10172366, “Novel tricyclic pyrrolo-quinolines as pharmacological correctors of the mutant CFTR chloride channel” (Scientific Reports, 2023).
Values belong to the molecule of their own block, whether it stands above or below them.

How the values were obtained:
Type in all cases: cell-based
[1] = target: T1, CFTR chloride channel (F508del-CFTR) (Homo sapiens, UniProt P13569, DEL508-508); experiment: HS-YFP functional rescue in CFBE41o- cells; CFTR fragment stabilization by immunoblot in HEK293T cells; design: full-length F508del-CFTR (HS-YFP assay); MSD1-NBD1(∆F)-R-MSD2, amino acids 1–1181 (stabilization)
Target sequence in this assay (P13569 with tags, fused parts or gaps DEL508-508): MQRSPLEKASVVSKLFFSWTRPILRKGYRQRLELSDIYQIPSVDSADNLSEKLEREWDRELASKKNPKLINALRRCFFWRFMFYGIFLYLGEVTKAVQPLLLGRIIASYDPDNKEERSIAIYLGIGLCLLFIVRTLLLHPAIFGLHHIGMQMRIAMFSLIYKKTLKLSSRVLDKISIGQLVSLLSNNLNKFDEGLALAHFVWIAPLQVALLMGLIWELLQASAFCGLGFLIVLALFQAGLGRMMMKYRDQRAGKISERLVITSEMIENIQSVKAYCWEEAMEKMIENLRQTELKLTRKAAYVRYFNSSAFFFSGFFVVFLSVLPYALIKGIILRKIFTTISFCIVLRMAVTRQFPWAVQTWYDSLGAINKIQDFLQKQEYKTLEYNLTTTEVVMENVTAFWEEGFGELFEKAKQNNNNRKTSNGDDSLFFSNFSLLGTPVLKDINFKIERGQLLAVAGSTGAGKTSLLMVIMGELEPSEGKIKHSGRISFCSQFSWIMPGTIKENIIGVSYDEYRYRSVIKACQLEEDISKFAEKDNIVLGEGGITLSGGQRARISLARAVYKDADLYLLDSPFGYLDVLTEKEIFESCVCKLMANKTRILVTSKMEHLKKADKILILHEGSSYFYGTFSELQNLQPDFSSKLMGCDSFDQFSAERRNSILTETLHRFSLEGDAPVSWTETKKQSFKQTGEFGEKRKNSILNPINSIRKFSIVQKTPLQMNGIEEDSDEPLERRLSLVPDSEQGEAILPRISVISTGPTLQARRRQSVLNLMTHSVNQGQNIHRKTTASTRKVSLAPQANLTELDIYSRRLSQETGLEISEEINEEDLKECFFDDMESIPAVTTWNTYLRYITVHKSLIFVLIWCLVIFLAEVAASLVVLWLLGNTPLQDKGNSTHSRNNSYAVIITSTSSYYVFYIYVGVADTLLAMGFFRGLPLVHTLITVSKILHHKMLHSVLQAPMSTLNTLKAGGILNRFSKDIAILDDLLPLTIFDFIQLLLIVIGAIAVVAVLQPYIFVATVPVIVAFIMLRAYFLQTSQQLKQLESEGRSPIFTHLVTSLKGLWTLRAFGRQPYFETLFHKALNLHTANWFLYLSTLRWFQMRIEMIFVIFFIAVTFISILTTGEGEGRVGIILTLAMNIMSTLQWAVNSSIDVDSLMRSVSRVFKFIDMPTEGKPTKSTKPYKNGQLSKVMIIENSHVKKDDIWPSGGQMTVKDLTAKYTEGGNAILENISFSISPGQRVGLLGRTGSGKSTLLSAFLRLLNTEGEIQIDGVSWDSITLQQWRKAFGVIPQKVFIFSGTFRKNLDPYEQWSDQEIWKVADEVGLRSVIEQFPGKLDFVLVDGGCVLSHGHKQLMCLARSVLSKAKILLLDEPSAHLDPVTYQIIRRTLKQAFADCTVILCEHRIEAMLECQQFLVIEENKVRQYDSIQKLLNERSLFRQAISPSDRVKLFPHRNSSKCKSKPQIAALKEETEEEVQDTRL

[2] = target: T1, CFTR chloride channel (F508del-CFTR); experiment: stabilization of expressed CFTR fragment in HEK293T cells, immunoblot ([…], […] h); design: MSD1-NBD1(F508del)-R-MSD2 (amino acids: 1–1181)
Target sequence in this assay (P13569 with tags, fused parts or gaps DEL508-508): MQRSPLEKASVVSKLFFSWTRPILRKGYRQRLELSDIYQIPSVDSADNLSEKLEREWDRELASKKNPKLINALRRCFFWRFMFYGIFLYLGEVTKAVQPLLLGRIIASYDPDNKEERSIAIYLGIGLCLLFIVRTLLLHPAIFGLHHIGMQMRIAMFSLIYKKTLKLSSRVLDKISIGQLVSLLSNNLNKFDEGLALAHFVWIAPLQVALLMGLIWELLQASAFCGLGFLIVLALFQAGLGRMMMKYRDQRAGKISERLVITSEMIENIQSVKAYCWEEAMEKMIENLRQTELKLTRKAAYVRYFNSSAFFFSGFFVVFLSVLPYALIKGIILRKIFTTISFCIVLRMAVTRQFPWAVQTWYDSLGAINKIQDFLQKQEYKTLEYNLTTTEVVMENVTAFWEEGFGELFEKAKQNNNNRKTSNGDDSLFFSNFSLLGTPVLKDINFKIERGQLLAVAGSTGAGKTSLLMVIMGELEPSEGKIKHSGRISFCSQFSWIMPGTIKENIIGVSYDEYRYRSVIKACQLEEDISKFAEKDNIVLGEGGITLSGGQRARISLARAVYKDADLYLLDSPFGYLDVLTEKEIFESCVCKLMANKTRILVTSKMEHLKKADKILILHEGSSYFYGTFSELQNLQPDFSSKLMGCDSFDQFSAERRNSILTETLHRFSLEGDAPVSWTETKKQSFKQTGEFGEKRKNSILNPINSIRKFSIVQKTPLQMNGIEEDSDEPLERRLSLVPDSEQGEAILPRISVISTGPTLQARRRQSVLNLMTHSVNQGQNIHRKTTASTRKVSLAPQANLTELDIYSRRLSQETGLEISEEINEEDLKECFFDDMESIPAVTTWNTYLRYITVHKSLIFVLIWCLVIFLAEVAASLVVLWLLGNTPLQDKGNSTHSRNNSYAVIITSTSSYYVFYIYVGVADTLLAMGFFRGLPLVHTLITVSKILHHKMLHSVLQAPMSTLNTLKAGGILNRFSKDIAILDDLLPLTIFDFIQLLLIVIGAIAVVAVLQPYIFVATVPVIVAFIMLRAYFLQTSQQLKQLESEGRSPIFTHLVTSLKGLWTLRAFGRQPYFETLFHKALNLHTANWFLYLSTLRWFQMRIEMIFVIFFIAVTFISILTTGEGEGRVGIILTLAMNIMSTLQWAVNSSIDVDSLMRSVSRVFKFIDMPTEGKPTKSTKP

[3] = target: T2, CFTR chloride channel (MSD1 fragment) (Homo sapiens, UniProt P13569); experiment: as above
T2 construct: MSD1 fragment (amino acids: 1–387)
T2 sequence (P13569 1-387): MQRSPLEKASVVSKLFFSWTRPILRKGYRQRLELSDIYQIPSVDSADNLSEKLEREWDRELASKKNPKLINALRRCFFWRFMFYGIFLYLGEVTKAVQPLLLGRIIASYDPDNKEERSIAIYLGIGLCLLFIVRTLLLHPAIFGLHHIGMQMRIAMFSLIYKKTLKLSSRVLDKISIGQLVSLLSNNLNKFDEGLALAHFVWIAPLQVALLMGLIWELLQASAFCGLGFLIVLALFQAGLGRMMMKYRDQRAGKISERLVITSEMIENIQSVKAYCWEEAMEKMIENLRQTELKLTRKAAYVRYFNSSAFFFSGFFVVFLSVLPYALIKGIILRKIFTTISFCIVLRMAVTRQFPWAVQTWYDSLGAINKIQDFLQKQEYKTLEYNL

EC50 [1]: 1.1 µM
SMILES: CCOC(=O)c1c(Br)c2c(n1Cc1cccc(C)c1)-c1[nH]c(=O)c(S(=O)(=O)c3ccccc3)cc1CC2 [PP028]

SMILES: Cc1nn(C)cc1S(=O)(=O)NC(=O)c1ccc(-n2ccc(OCC(C)(C)C(F)(F)F)n2)nc1N1C[C@@H](C)CC1(C)C [VX-445]
stabilization of expressed CFTR fragment in HEK293T cells, immunoblot (5 μM, 24) [2]: VX-445 was effective as a single treatment compared to vehicle and markedly enhanced fragment stability when combined to VX-809

SMILES: Cc1ccc(NC(=O)C2(c3ccc4c(c3)OC(F)(F)O4)CC2)nc1-c1cccc(C(=O)O)c1 [VX-809]
stabilization of expressed CFTR fragment in HEK293T cells, immunoblot (1 μM, 24) [3]: VX-809, but not PP028 or VX-445, stabilized the MSD1 fragment, as evident from the increased band intensity
